“And” between values parts separate entries of the source, which are not always exact repeats. Equal entries are not always repeated.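 Step 1: Grow cells in 96-well plates. Step 2: Expose to compound for 48 hours at 5 concentrations. Step 3: Interpolate endpoints linearly; if unreached, use highest concentration. GI50 marks 50% less growth. Definition used: TGI = concentration required for complete inhibition of growth.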
How the values were obtained:
Experiment in all cases: NCI anticancer screen, dose series, 48 h
HS 578T breast = test system: HS 578T breast
HOP-62 NSCLC = test system: HOP-62 NSCLC
MALME-3M melanoma = test system: MALME-3M melanoma
OVCAR-8 ovarian = test system: OVCAR-8 ovarian
SF-539 CNS = test system: SF-539 CNS
HCC-2998 colon = test system: HCC-2998 colon
IGROV1 ovarian = test system: IGROV1 ovarian
MCF7 breast = test system: MCF7 breast
NCI/ADR-RES ovarian = test system: NCI/ADR-RES ovarian
SK-OV-3 ovarian = test system: SK-OV-3 ovarian

SMILES | GI50 (HS 578T breast) | TGI (HS 578T breast) | GI50 (HOP-62 NSCLC) | TGI (HOP-62 NSCLC) | GI50 (MALME-3M melanoma) | TGI (MALME-3M melanoma) | GI50 (OVCAR-8 ovarian) | TGI (OVCAR-8 ovarian) | GI50 (SF-539 CNS) | TGI (SF-539 CNS) | GI50 (HCC-2998 colon) | TGI (HCC-2998 colon) | GI50 (IGROV1 ovarian) | TGI (IGROV1 ovarian) | GI50 (MCF7 breast) | TGI (MCF7 breast) | GI50 (NCI/ADR-RES ovarian) | TGI (NCI/ADR-RES ovarian) | GI50 (SK-OV-3 ovarian) | TGI (SK-OV-3 ovarian)
COc1ccc(C(=O)Nc2ncc(Cc3ccc(F)cc3)s2)cc1 | 0.052 µM | 34.6 µM | 0.148 µM | > 56.5 µM | 0.0855 µM | > 62.8 µM | 0.135 µM | > 100 µM | 0.0448 µM | 0.414 µM | 0.163 µM | 2.49 µM | 0.0957 µM | 97.7 µM | 0.0385 µM | > 100 µM | 0.0511 µM | > 100 µM | 0.277 µM | > 100 µM
Cc1c(N2C(=O)/C(=C\c3ccc(O)cc3)N=C2c2ccccc2)c(=O)n(-c2ccccc2)n1C | > 100 µM | > 100 µM | > 100 µM | > 100 µM | > 100 µM | > 100 µM | > 100 µM | > 100 µM | > 100 µM | > 100 µM | > 100 µM | > 100 µM | > 100 µM | > 100 µM | > 100 µM | > 100 µM | > 100 µM | > 100 µM | > 100 µM | > 100 µM
Cc1cc(N(CCCNc2ccnc3cc(Cl)ccc23)Cc2cccs2)nc(Cl)n1 | 9.29 µM | 41.5 µM | 11.8 µM | 29.6 µM | 3.06 µM | 13.5 µM | 4.83 µM | 34.9 µM | 7.02 µM | 23.1 µM | 4.05 µM | 17.8 µM | 2.9 µM | 18.9 µM | 3.06 µM | 17.1 µM | 2.64 µM | 28.5 µM | 7.05 µM | 22.1 µM
Cc1ccc(C(=O)Nc2ccc(CN3CCN(C)CC3)c(C(F)(F)F)c2)cc1C#Cc1cncc2ncccc12 | 0.232 µM | 1.08 µM | 0.474 µM | 6.07 µM | 0.113 µM | 0.951 µM | 0.446 µM | 4.96 µM | 0.42 µM | 1.55 µM | 2.47 µM | 22.2 µM | 0.0879 µM | 0.755 µM | 1.46 µM | 3.44 µM | 0.502 µM | 16 µM | 0.553 µM | 6.63 µM
Cc1cc(-c2ccccc2)c(C)n1Cc1ccc(Cl)cc1 | 4.43 µM | > 100 µM | 6.12 µM | > 100 µM | 3.85 µM | 39.1 µM | 5.95 µM | > 100 µM | 2.8 µM | 12.1 µM | 15.1 µM | 93.7 µM | 5.21 µM | > 100 µM | 3.11 µM | > 100 µM | 3.64 µM | 66.3 µM | 5.92 µM | > 100 µM
CC[C@](O)(C(=O)O)c1cc2n(c(=O)c1CO)Cc1cc3ccccc3nc1-2 | 1.48 µM | 25 µM and 13.7 µM | 0.025 µM | – | 0.0642 µM and 0.272 µM | 4.75 µM and 4.12 µM and 0.807 µM | 0.0292 µM and 0.0262 µM and 0.0353 µM | – | < 0.0025 µM | – | – | – | 0.0299 µM and 0.197 µM | – | – | 3.43 µM | 0.00661 µM and 0.012 µM | 0.224 µM and 0.121 µM and 0.0889 µM | 0.0283 µM and 0.0176 µM | –
CN(C)CCCNC(=O)c1cc2c3ccccc3[nH]c2c2ncccc12 | 14.5 µM | 38.3 µM | 5.99 µM | 36.1 µM | 13 µM | 27 µM | 12.6 µM | > 100 µM | 10.8 µM | 23.4 µM | 10.8 µM | 23.4 µM | 10.9 µM | 70.9 µM | 14.7 µM | 66.8 µM | 19.2 µM | 66.1 µM | 20 µM | > 100 µM
COC(=O)C1CC2(c3ccc(C)cc3)C(c3ccc(C)cc3)=C(c3ccc(C)cc3)C1(c1ccc(C)cc1)S2=O (stereo unspecified) | 48.6 µM | > 100 µM | 34.8 µM | > 100 µM | > 100 µM | > 100 µM | 37.9 µM | > 100 µM | > 100 µM | > 100 µM | > 100 µM | > 100 µM | 98.4 µM | > 100 µM | > 100 µM | > 100 µM | 85.5 µM | > 100 µM | > 100 µM | > 100 µM
COc1cc(C2c3cc4c(cc3C3OC(=O)C2C3CO)OCO4)cc(OC)c1OC (stereo unspecified) | 0.043 µM | > 100 µM | 0.0339 µM | > 100 µM | 0.0262 µM | > 100 µM | 0.0274 µM | > 100 µM | < 0.0122 µM | 0.0668 µM | 0.0297 µM | 0.0899 µM | 0.035 µM | > 100 µM | < 0.01 µM | > 100 µM | 0.0181 µM | 0.0607 µM | 0.0217 µM | 0.0722 µM
O=C1C[C@@H](c2ccccc2)NCCCCN(O)CCCN1 | – | > 100 µM | – | > 100 µM | – | > 100 µM | – | > 100 µM | – | > 100 µM | – | > 100 µM | – | > 100 µM | – | > 100 µM | – | > 100 µM | – | > 100 µM
CC(=O)OC1CCC2(C)C(CCC3C2CCC2(C)C(C4=CC(=O)OC4)CCC32)C1 (stereo unspecified) | 4.68 µM | 32.1 µM | 14.5 µM | 38.3 µM | 4.23 µM | 23.1 µM | 4.2 µM | 36.7 µM | 2.68 µM | 9.15 µM | 23.8 µM | > 100 µM | 16.9 µM | 53.2 µM | 9.07 µM | 95.7 µM | 8.37 µM | 42.7 µM | 19.9 µM | 49 µM
CC1=C[C@H]2c3c(c(O)c(O)c4oc5cc(O)cc(O)c5c(=O)c34)[C@H](c3cc(O)c(O)c4oc5cc(O)cc(O)c5c(=O)c34)[C@H]2C(C)(C)C1 | 2.07 µM and 1.49 µM | 8.9 µM and 7.39 µM | 1.53 µM | 4 µM and 6 µM | 1.73 µM and 1.98 µM | 4.1 µM and 5.31 µM | 2.38 µM and 3.39 µM | – | 1.16 µM and 1.69 µM | 3.89 µM and 4.79 µM | 1.91 µM and 2.5 µM | 3.78 µM and 10 µM | 1.36 µM and 2.05 µM | 5.26 µM and 17 µM | 0.725 µM | 3.88 µM | 8.48 µM and 3.63 µM | 34.9 µM and 25.4 µM | 2.05 µM and 2.27 µM | 5.13 µM and 8.28 µM
OC(COc1ccc(Cl)cc1Cl)CN1CCCC1 (stereo unspecified) | – | > 100 µM | – | > 100 µM | – | > 100 µM | – | > 100 µM | – | > 100 µM | – | > 100 µM | – | > 100 µM | – | > 100 µM | – | > 100 µM | – | > 100 µM
Cc1sc2nc(-c3ccccn3)c(/C=N/N=C(N)N)n2c1C | 12.7 µM | 27.7 µM | 8.06 µM | 16.9 µM | 4.53 µM | 9.81 µM | 6.65 µM | 68.1 µM | 28.6 µM | 50.8 µM | – | – | 25.6 µM | > 58.3 µM | 6.54 µM | 34 µM | > 21.9 µM | > 40 µM | 9.14 µM | 20.1 µM
O=C(Cc1ccc(/C=C/C(=O)c2ncc[nH]2)cc1)Nc1ccc(Br)cc1 | 7.94 µM | > 16.7 µM | 2.49 µM | 5.73 µM | 3.12 µM | 7.69 µM | 4.04 µM | > 16.7 µM | 1.47 µM | 3.56 µM | 2.46 µM | 4.96 µM | 2.37 µM | 7.22 µM | 0.569 µM | > 16.7 µM | 4.61 µM | > 16.7 µM | 8.2 µM | > 16.7 µM
Nc1c(C(=O)Nc2cccc3ccccc23)sc2nc3c(cc12)CCCC3 | 0.852 µM | > 100 µM | 2.16 µM | > 100 µM | – | – | 4.56 µM | > 100 µM | 1.45 µM | > 100 µM | 4.17 µM | > 100 µM | 2.34 µM | > 100 µM | 0.0577 µM | > 100 µM | 0.833 µM | > 100 µM | 1.54 µM | > 100 µM
COC(=O)c1[nH]nc(-c2ccccc2)c1N1CCCCC1 | 22.4 µM | 64.7 µM | 22 µM | 57 µM | 39.3 µM | > 100 µM | 44.2 µM | > 100 µM | 20.6 µM | 57.4 µM | – | – | 60.8 µM | > 100 µM | 29.5 µM | > 100 µM | 22.8 µM | 58.5 µM | 36.4 µM | > 100 µM
N#Cc1cc2cc3c4c(c2oc1=O)CCCN4CCC3 | – | > 100 µM | – | > 100 µM | – | – | – | > 100 µM | – | > 100 µM | – | > 100 µM | – | > 100 µM | – | > 100 µM | – | > 100 µM | – | > 100 µM
BrP(NC1CCCCCC1)(c1ccccc1)(c1ccccc1)c1ccccc1 | – | 12.4 µM | – | 35.5 µM | – | 12.5 µM | – | 10.7 µM | – | 34.4 µM | – | 6.49 µM | – | 21.7 µM | – | 6.26 µM | – | > 100 µM | – | –
COc1ccc(/C=C/c2nc(N3CCOCC3)c3cc(F)c(F)cc3n2)cc1OC | 54.8 µM | > 100 µM | 50.7 µM | > 100 µM | – | – | 4.57 µM | > 100 µM | > 100 µM | > 100 µM | 7.49 µM | > 100 µM | 47.4 µM | > 100 µM | 2.54 µM | > 100 µM | 4.09 µM | > 100 µM | 11 µM | > 100 µM

Source: PubChem BioAssay (NCI)
